{
  "source": "patent US20240050426A1",
  "about": "“TREATING VIRAL INFECTION WITH NMD INHIBITORS” (The Cleveland Clinic Foundation, priority 2021, published 2024)",
  "key": {"[1]": {"details": "concentrations below those used in this study (25 μM); cited from earlier work"}, "[2]": {"system": "EBV transcripts in AGS-EBV cells", "assay": "qRT-PCR of EBV transcript abundance in TPA-treated AGS-EBV cells with or without NMDI-1", "format": "cell-based", "details": "5 ng/mL TPA, 25 μM NMDI-1, 24 h", "from_the_text": "FIG. 3. NMD controls the abundance of the polycistronic EBV transactivator transcripts and Rta protein expression. (A) Schematic of the EBV transactivator locus and the three transcripts expressed from this locus. Dashed lines mark spliced introns; CDS, coding sequence; Rp, EBV BRLF1 promoter; Zp, EBV BZLF1 promoter; pA, 3′-polyadenylation site; green bar, location of the Northern blotting probe used in F and I. (B) qRT-PCR analysis of BRLF1 transcripts in HEK293T cells transfected with 0, 20, 40, or 60 nM UPF1-targeting siRNA for 24 h, followed by transfection of a plasmid encoding the complete EBV transactivator locus (left panel, orange) or the BRLF1 coding sequence (CDS) only (right panel, blue), together with pcDNA3-nlsGFP (internal control) for 48 h. Data was normalized to GFP transcript levels to control for differences in transfection efficiency and presented as fold abundance relative to cells without si.UPF1 (−). (C) qRT-PCR analysis of BZLF1 transcripts in HEK293T cells transfected with increasing amounts of si.UPF1 for 24 has in (B), followed by transfection for 48 h with a plasmid encoding the EBV BZLF1 locus (left panel, orange) or the BZLF1 CDS (right panel, blue), together with pcDNA3-nlsGFP (internal control). […] See 10E Fig for quantification of effects. […] See S6F Fig for quantification of effects. […] See S6G Fig for quantification of effects. […]"}, "KSHV": {"system": "KSHV", "assay": "KSHV reactivation: qRT-PCR of KSHV lytic transcripts after NMDI-1 treatment", "format": "cell-based", "details": "25 μM NMDI-1, 24 to 120 h", "experimental": "(§1) FIG. 4. Small-molecule NMD inhibitor NMDI-1 is a potent inducer of EBV and KSHV reactivation. (A-C) qRT-PCR analysis of EBV BZLF1, BRLF1, BMRF1, BLLF1b, and/or BcLF1 transcripts in EBV^+ AKBM (A), AGS-EBV (B), or LCL (C) cells treated with 25 μM NMDI-1 for 12 to 120 h, presented as fold expression relative to Mock-treated samples. (D-G) qRT-PCR analysis of Orf26, Orf50, Orf57, or Orf74 transcripts in KSHV^+ iSLK.rKSHV219 (D), HEK293T.rKSHV219 (E), BC3 (F), and BCBL1 (G) cells treated with 25 μM NMDI-1 for 24 to 120 h, presented as fold expression relative to Mock-treated samples. Data are representative of at least two (A, C) or three (B, D, E, F, G) independent experiments and presented as mean±SD of three biological replicates; ns, p>0.05, * p≤0.05, ** p≤0.01, *** p≤0.001.\n(§2) Total RNA was extracted from cells using the E.Z.N.A. HP Total RNA Isolation Kit (OMEGA Bio-Tek) according to the manufacturer's instructions. Reverse transcription and qRT—PCR were performed using equal amounts (50-500 ng) of the purified RNA and the SuperScript III Platinum One-Step qRT-PCR kit with ROX (Invitrogen) on a 7500 Fast Real-Time PCR Machine (Applied Biosystems). Premixed master mixes of TaqMan primers and probes for the detection of human transcripts were purchased from Applied Biosystems (18S) or IDT (GAPDH, UPF1, UPF2, UPF3a, UPF3b, SMG1, SMG5, SMG6, SMG7, STAU1, STAU2, GADD45B, PDRG1, RPL32, HPRT1, MAP3K14). […] Abundance of target genes was calculated by normalizing for cellular 18S or GAPDH using the Comparative CT (ΔΔCt) method. […]"}, "AGS cells": {"system": "AGS cells", "assay": "Cytotoxicity assessment, flow cytometry with 7-AAD and FITC-Annexin V", "format": "cell-based, human", "details": "NMDI-1 between 5 and 50 μM, 48 h", "experimental": "(§3) FIG. 11. Cytotoxicity assessment of NMDI-1 treatment. (A, B) Flow cytometry analysis of virus-negative Burkitt lymphoma BJAB (A) or AGS (B) cells treated with 5 to 100 μM NMDI-1 or DMSO (‘0 μM’ NMDI-1) for 48 h and stained with 7-AAD and FITC-Annexin V. Data are presented as mean percentage of live (orange, Annexin V^−/7-AAD^−), apoptotic (blue, […]), and necrotic (red, Annexin V^+/7-AAD^+) cells for three biological replicates. 1 μM staurosporine treatment served as positive control for apoptosis/necrosis induction.\n(§4) AGS-EBV and HEK293T.rKSHV219 cells were seeded into 12-well plates and transfected with UPF1-specific or non-targeting control siRNAs for 24 to 120 h as indicated. As a positive control for reactivation, cells were treated with 2.5 mM NaB for 24 h. For microscopy, cells were incubated with Hoechst nucleic acid stain (1:2000, Invitrogen) in PBS for 5 min at RT, after which DAPI, as well as GFP or RFP were imaged using a fluorescence microscope (Omano). For flow cytometry analysis of GFP and RFP expression, cells were fixed in 4% paraformaldehyde in PBS and analyzed on an LSRFortessa (BD Biosciences). […] Data were analyzed using the Flowjo software (BD Biosciences)."}, "EBV": {"system": "EBV", "assay": "EBV reactivation: qRT-PCR of EBV lytic gene expression after NMDI-1 treatment", "format": "cell-based", "details": "25 μM NMDI-1, qRT-PCR, relative to Mock", "experimental": "as §1, §2"}, "BJAB cells": {"system": "BJAB cells", "assay": "Cytotoxicity assessment, flow cytometry with 7-AAD and FITC-Annexin V", "format": "cell-based", "details": "virus-negative BJAB cells, NMDI-1 between 5 and 50 μM, 48 h", "experimental": "as §3, §4"}},
  "data": [
    {"smiles": "Cc1c2ccnc(Cl)c2c(C)c2c1[nH]c1ncccc12", "note": "[NMDI-1]", "values": [
      {"measurement": "toxicity in in vivo studies", "setting": "[1]", "value": "without apparent toxicity"},
      {"measurement": "BRLF1 transcript abundance compared to the mock-treated control", "setting": "[2]", "value": "significant increase in BRLF1 transcript abundance"},
      {"measurement": "levels of other EBV transcripts (BNRF1, BcLF1, BLLF1)", "setting": "[2]", "value": "not significantly affected"},
      {"measurement": "KSHV lytic transcripts Orf50, Orf26, Orf57 and/or Orf74", "setting": "KSHV; KSHV+ BC3 PEL cells", "value": "induced potent expression of the KSHV lytic transcripts"},
      {"measurement": "KSHV lytic transcripts Orf50, Orf26, Orf57 and/or Orf74", "setting": "KSHV; KSHV+ BCBL1 PEL cells", "value": "induced potent expression of the KSHV lytic transcripts"},
      {"measurement": "KSHV lytic transcripts Orf50, Orf26, Orf57 and/or Orf74", "setting": "KSHV; KSHV+ HEK293T.rKSHV219 cells", "value": "induced potent expression of the KSHV lytic transcripts"},
      {"measurement": "KSHV lytic transcripts Orf50, Orf26, Orf57 and/or Orf74", "setting": "KSHV; KSHV+ iSLK.rKSHV219 cells", "value": "induced potent expression of the KSHV lytic transcripts"},
      {"measurement": "cell viability", "setting": "AGS cells", "value": "did not or only minimally affect cell viability"},
      {"measurement": "EBV lytic gene expression", "setting": "EBV; AGS-EBV cells", "value": "potent induction of lytic gene expression"},
      {"measurement": "EBV lytic gene expression (BZLF1, BMRF1, BLLF1, BcLF1)", "setting": "EBV; EBV+ AKBM cells", "value": "striking induction of EBV lytic gene expression"},
      {"measurement": "EBV lytic gene expression", "setting": "EBV; EBV-transformed LCL cells from healthy-donor primary B cells", "value": "potent induction of lytic gene expression"},
      {"measurement": "cell viability", "setting": "BJAB cells", "value": "did not or only minimally affect cell viability"}
    ]}
  ]
}
